# Experimental data published in US7871981B2, “Inhibition of cell motility, angiogenesis, and metastasis” (The United States of America as represented by the …, priority 1999, dated 2011).
# How the values were obtained:
# HUVE cells [1] = assay: HUVE cell migration, modified Boyden chamber; format: cell-based, human
# Protocol: (§1) The migration assay of HUVE and HMEC-1 cells in modified Boyden chambers was adapted from previously described procedures (Murohara et al., Thromb. Vasc. Biol., 19: 1156-61 (1999), Malinda et al., FASEB J., 13: 53-62 (1999)). In brief, Biocoat Cell Environment control inserts (8 micron pore size; Becton Dickinson) were coated with 0.1% gelatin (Sigma) for at least 1 hour at 37° C. and air dried. Lower chambers contained 0.7 ml RPMI+0.1% BSA, to which 20 ng/ml HGF and/or 300 nM Grb2 inhibitors were added. Cells were pre-treated with the indicated concentrations of Grb2 inhibitors for 18-24 hours, trypsinized, washed twice in RPMI+0.1% BSA, added to upper chambers (5×10^4 cells/well) with or without inhibitors in a final volume of 0.5 ml, and incubated for 4 h at 37° C. Cells on the upper surface of each filter were removed with a cotton swab, while cells that had traversed to the bottom surface of the filter were fixed and stained using Diff-Quik (Dade Diagnostics) and counted using a 10× objective. Mean values from 4 randomly selected fields (1×1.4 mm) were calculated for each of triplicate wells per experimental condition. Shown in FIG. 6 is the ratio of growth factor-treated to control migrating cells designated on the y-axis as “Migration (Fold Increase)” or as the mean number of cells per optical field in FIGS. 8-11.
# TAC-2 cells = assay: Epithelial tube formation assay, TAC-2 cells in collagen gels; format: cell-based; conditions: for HGF-induced elongation of epithelial tubes (cord length): HGF 20 ng/ml, 3 days; for concentration at which a sub-maximal inhibitory effect is already observed: HGF-induced tube elongation
# Protocol: TAC-2 cells were suspended in three-dimensional collagen gels at 1×10^4 cells/ml in collagen and incubated in complete medium containing HGF and/or Grb2 inhibitors as indicated. After 3 days, the cultures were fixed with 2.5% glutaraldehyde in 0.1 M cacodylate buffer, and at least 3 randomly selected fields per experimental condition in each of 3 separate experiments were digitally recorded with brightfield microscopy. The total length of the cords in each individual colony present in each optical field was measured with IPLab. Cord length was considered as “0” in: a) colonies with a spheroidal shape, and b) slightly elongated structures in which the length to diameter ratio was less than 2. The mean values for each experimental condition were compared to controls using the Student's unpaired t-test. Results in FIG. 5 are described as mean total cord length (in μm) per field.
# HMEC-1 cells [2] = assay: HMEC-1 cell migration, modified Boyden chamber; format: cell-based, human
# Protocol: as §1
# HMEC-1 cells [3] = assay: Endothelial cell tubulogenesis assay on collagen (HMEC-1 collagen invasion); format: cell-based, human
# Protocol: HMEC-1 cell tubulogenesis assay on collagen gels was adapted from a previously described procedure (Montesano et al., Cell, 42: 469-77 (1985), Pepper et al., Exp. Cell Res., 204: 356-63 (1993)). Cells were seeded onto collagen gels cast in 16-mm wells (2.5×10^4 cells/well) and grown to confluence in reduced growth medium (5% FCS and 150 μg/ml ECGS). At confluence cells were pre-treated with or without Grb2 inhibitors for 24 hours, after which time medium was replaced by fresh medium supplemented with or without the indicated concentration of inhibitors and/or 20 ng/ml HGF. Medium and compounds were changed every day. After 24 hours, the cultures were fixed in situ, and 5 randomly selected optical fields per experimental condition in each of three separate experiments were digitally recorded under phase contrast microscopy using a 20× phase contrast objective, by focusing 20 μm beneath the surface of the gel. Invasion was quantitated using IPLab software (Scanalytics, Fairfax, Va.) by measuring the total length of all cellular structures that had penetrated beneath the surface monolayer either as apparently single cells or in the form of cell cords. Values were compared using Student's unpaired t-test and a significant value was taken at P<0.001. Results set forth in FIG. 7 are the mean total length (in μm) per field.
# HUVECs = assay: HUVE cell tubulogenesis assay on Matrigel; format: cell-based, human
# Protocol: The HUVE tube formation assay was performed as previously described (Grant et al., J. Cell. Physiol., 153: 614-625 (1992)). Briefly, 96-well plates were coated with 90 μl of Matrigel (10 mg/ml) (Collaborative Research) (Baatout, supra) and incubated at 37° C. for 30 min to promote gelling. 10,000 HUVECs were resuspended in reduced growth medium (serum concentration 10% and 5 U/ml heparin) and added to each well with the indicated reagents in a final volume of 100 μl. After 18 h, the plates were fixed with Diff-Quik, and at least 4 randomly selected fields per experimental conditions were digitally recorded under bright field illumination using a 10× objective. The mean additive length of the cords present in each optical field was measured using IPLab and compared to controls using the Student's unpaired t-test.
# MDCK cells = assay: Extracellular matrix invasion assay, MDCK cells in collagen gels; format: cell-based, canine; conditions: peptide 100 nM
# Protocol: MDCK cell invasion into three-dimensional collagen gels was analyzed as previously described. Briefly, type I collagen (1.5 mg/ml; Cohesion Technologies) was mixed with 10×MEM and sodium bicarbonate (11.76 mg/ml) at a ratio of 8:1:1 (vol:vol:vol) on ice, and 0.4 ml aliquots were dispensed into 16-mm tissue culture wells (Nunc), and allowed to gel at 37° C. for 20 min. Cells were seeded onto gels (1×10^4 cells/well) in 0.4 ml of growth medium containing HGF and/or peptides 1 or 4 as indicated. After 5 days, cells were fixed in situ in 2.5% glutaraldehyde in 0.1 M sodium cacodylate buffer (pH 7.4), and cells that had invaded the gel below the surface monolayer in ten randomly selected fields (1×1.4 mm) were counted microscopically using a 20× phase contrast objective. Depth of cellular invasion into the collagen gel was quantitated in the same ten fields per treatment group using a calibrated fine focusing micrometer. Values were compared using the Student's unpaired t-test and a significant value was taken as P<0.001. Results in Table 1 are shown as the mean number of invading cells/field or mean invasion depth/cell in microns+standard error of the mean.
# MDCK cells were left untreated (Control), treated with HGF (10 ng/ml), or HGF+peptide 2 or 4 (100 nM), and invasion into collagen matrices was quantitated microscopically as described above. Values are the mean of at least 10 randomly selected fields±standard error of the mean. Epithelial Tube Formation Assay
# HUVE cells [4] = assay: HUVE cell proliferation; format: cell-based, human; conditions: growth factor alone: HGF 25 ng/ml, VEGF 10 ng/ml, bFGF 5 ng/ml
# Protocol: HUVE or HMVE cells were seeded per triplicate in type I collagen-coated 48-well plates (Biocoat) (3000 cells/well) in […] of complete EGM-Bullet Kit medium (BioWhittaker, Walkersville, Md.), allowed to attach for 4 hr and incubated overnight with or without the indicated concentrations of peptide 2. The cultures were rinsed twice in serum-free medium and incubated with EBM medium (BioWhittaker) supplemented with 50 μg/ml heparin, 50 μg/ml ascorbic acid and 10% FCS. After either 4 days (HUVE) or 5 days (HMVE), cells were harvested with trypsin/EDTA and counted with an hemocytometer. The mean number of cells per ml was calculated from 3 independent measures for each of triplicate wells per experimental condition and compared to controls using the Student's unpaired t-test. Results set forth in FIG. 12 are described as the ratio of growth factor-treated to control proliferating cells designated on the y-axis as “Proliferation (Fold Increase)”.
# NIH 3T3 fibroblasts = assay: NIH 3T3 fibroblast migration, modified Boyden chamber; format: cell-based; conditions: PDGF-BB 50 ng/ml alone
# Protocol: as §1
# PDGF is implicated in different biological processes such vascular remodeling, wound healing and cancer (for reviews, see Bornfeldt et al., Ann N Y Acad. Sci., 766:416-30, 1995; Gendron, Surv. Ophthalmol., 44:184-5, 1999). Addition of 50 ng/ml PDGF-BB to NIH 3T3 fibroblasts incubated in a modified Boyden chamber results in a dramatic, 20-fold increase in cell migration. […] This observation opens a potential therapeutical use of the Grb2 inhibitor compounds in the treatment of diseases such as cancer, wound healing disorders, vascular complications of diabetes mellitus, vascular nephropathies, and diseases with occurrence of fibrosis.
# [5] = peptide 300 nM, no growth factor
molecule,measurement,setting,value
"CCCCCCCCCCCCCC(=O)O[C@@H]1[C@@H](C)[C@@]2(O)[C@@H](C=C(CO)C[C@]3(O)C(=O)C(C)=C[C@@H]23)[C@@H]2C(C)(C)[C@]12OC(C)=O [PMA, phorbol myristate acetate, reference compound]",increase of cell migration,HUVE cells [1]; PMA 40 ng/ml alone,300%
"NC(=O)C[C@H](NC(=O)C1(NC(=O)[C@H](Cc2ccc(CP(=O)(O)O)cc2)NC(=O)C(=O)O)CCCCC1)C(=O)NCCCc1cccc2ccccc12 [peptide 1, oxalyl-Pmp-Ac6c-Asn-NH-(3-naphthalen-1-yl-propyl)]",HGF-induced elongation of epithelial tubes (cord length),TAC-2 cells,significantly (p<0.0001) abrogate
same,concentration at which a sub-maximal inhibitory effect is already observed,TAC-2 cells,30 nM
same,elongation and branching of duct-like structures,TAC-2 cells; co-addition with HGF 20 ng/ml,abrogated the elongation and branching of duct-like structures
same,HGF-induced increase on cell motility,"HMEC-1 cells [2]; peptide 300 nM, HGF 20 ng/ml",practically reverted to basal levels
same,basal levels of endothelial cell motility,HMEC-1 cells [2]; [5],did not significantly alter
same,bFGF-induced HUVEC migration,HUVE cells [1]; peptide 300 nM,complete blockade
same,HGF-induced increase on cell motility,"HUVE cells [1]; peptide 300 nM, HGF 20 ng/ml",practically reverted to basal levels
same,basal levels of endothelial cell motility,HUVE cells [1]; [5],did not significantly alter
same,collagen invasion induced by HGF,"HMEC-1 cells [3]; peptide 30-300 nM, HGF 20 ng/ml",suppressed
same,mean length of the cords per optical field,"HUVECs; HGF/NK1 300 ng/ml, peptide 1 μM, 18 h",2502.8±108 μm
same,extent of cord formation,HUVECs; peptide 1 μM + HGF/NK1,markedly reduced the extent of cord formation
same,decrease in mean cord length vs HGF/NK1 alone,HUVECs; peptide 1 μM + HGF/NK1 300 ng/ml,30%
"CC(=O)N[C@@H](Cc1ccc(C(C(=O)O)C(=O)O)cc1)C(=O)NC1(C(=O)N[C@@H](CC(N)=O)C(=O)NCCCc2cccc3ccccc23)CCCCC1 [peptide 3, (N-acetyl-4-malonyl)-Phe-Ac6c-Asn-NH-(3-naphthalen-1-yl-propyl)]",reduction of the mean depth of invasion per cell,MDCK cells; HGF-stimulated,at least 50%
same,reduction of the number of invading cells,MDCK cells; HGF-stimulated,at least 50%
same,HGF-induced elongation of epithelial tubes (cord length),TAC-2 cells,significantly (p<0.0001) abrogate
same,concentration at which a sub-maximal inhibitory effect is already observed,TAC-2 cells,30 nM
"HGF: hepatocyte growth factor, recombinant human",Mean Invading Cells/Field,"MDCK cells; HGF 10 ng/ml, 5 days",29.7 ± 2.6
same,Mean Invasion Depth/Cell,"MDCK cells; HGF 10 ng/ml, 5 days",35.6 ± 2.7 μm
same,increase on cell motility induced by growth factor,HMEC-1 cells [2]; HGF 20 ng/ml alone,5.5 fold
same,increase on cell motility induced by growth factor,HUVE cells [1]; HGF 20 ng/ml alone,3.5 fold
same,increase in collagen invasion,HMEC-1 cells [3]; HGF 20 ng/ml alone,6 fold
same,increase in the mean number of HUVE cells per ml (proliferation),HUVE cells [4],2.3 fold
VEGF,increase in the mean number of HUVE cells per ml (proliferation),HUVE cells [4],2 fold
bFGF: human recombinant basic fibroblast growth factor,increase in the mean number of HUVE cells per ml (proliferation),HUVE cells [4],4.1 fold
"PDGF-BB: platelet-derived growth factor used to stimulate NIH 3T3 migration (protein, UniProt P01127 82-190, looked up, homodimer, platelet-derived growth factor used to stimulate NIH 3T3 migration) Platelet-derived growth …: SLGSLTIAEPAMIAECKTRTEVFEISRRLIDRTNANFLVWPPCVEVQRCSGCCNNRNVQCRPTQVQLRPVQVRKIEIVRKKPIFKKATVTLEDHLACKCETVAAARPVT",increase in cell migration,NIH 3T3 fibroblasts,20 fold
